Assay results: patent publication US6355799B1, “Substituted benzene compounds, process for their preparation, and herbicidal and defoliant compositions containing them” (ISK Americas Incorporated, priority 1997, dated 2002)

Tests used:
Format in all cases: in vivo
[1] = test system: redroot pigweed (Amaranthus retroflexus, AMARE); test: Pre-emerge test, greenhouse herbicide activity screening; settings: rating scale 0-100, 14 days after application
Outline: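 Compounds in acetone were track-sprayed at 15-1000 g ai/ha (187 l/ha) on sandy loam pots: pre-emerge one day after seeding, post-emerge at 2-3 leaf stage with 0.25% v/v non-ionic surfactant. Phytotoxicity was rated 14 days later on a 0 (no damage) to 100 (complete death) scale.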

[2] = test system: barnyardgrass (Echinochloa crus-galli, ECHCG); test: as above; settings: rating scale 0-100, 14 days after application
Outline: (§1)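 Rating: 0–100 visual injury, 14 DAA. Application: acetone, 187 l/ha, 15–1000 g ai/ha, flat-fan track sprayer with nozzle 40–45 cm above soil or canopy. Post-emerge runs used 0.25% v/v surfactant on 2–3 leaf plants.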

[3] = test system: green foxtail (Setaria viridis, SETVI); test: as above; settings: rating scale 0-100, 14 days after application
Outline: as §1

[4] = test system: ivyleaf morningglory (Ipomoea hederacea, IPOHE); test: as above; settings: rating scale 0-100, 14 days after application
Outline: as §1

[5] = test system: johnsongrass (Sorghum halepense, SORHA); test: as above; settings: rating scale 0-100, 14 days after application
Outline: as §1

[6] = test system: lambsquarters (Chenopodium album, CHEAL); test: as above; settings: rating scale 0-100, 14 days after application
Outline: as §1

[7] = test system: large crabgrass (Digitaria sanguinalis, DIGSA); test: as above; settings: rating scale 0-100, 14 days after application
Outline: as §1

[8] = test system: sicklepod (Cassia obtusifolia, CASOB); test: as above; settings: rating scale 0-100, 14 days after application
Outline: as §1

[9] = test system: velvetleaf (Abutilon theophrasti, ABUTH); test: as above; settings: rating scale 0-100, 14 days after application
Outline: as §1

[10] = test system: field corn (Zea mays L., var. Dekalb 535, CORN); test: Pre-emerge test, crop safety; settings: rating scale 0-100, 14 days after application
Outline: (§2)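 Applied at 15–1000 g ai/ha from acetone in 187 l/ha spray volume. Post-emergence applications included 0.25% v/v non-ionic surfactant and reached plants sown 8–21 days before. Pre-emergence applications were incorporated by surface watering. Efficacy or crop damage was rated on a 0–100 scale after 14 days.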

[11] = test system: upland rice (Oryza sp., var. Tebonnet, RICE); test: Pre-emerge test, crop safety; settings: rating scale 0-100, 14 days after application
Outline: as §2

[12] = test system: barnyardgrass (Echinochloa crus-galli, ECHCG); test: Post-emerge test, greenhouse herbicide activity screening; settings: rating scale 0-100 (0 no damage, 100 complete death), 14 days after application
Outline: (§3)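 Visual ratings on a 0-100 scale (0 no damage, 100 all plants dead) were taken at 14 days after treatment. Rates of 15-1000 g ai/ha in acetone, 187 l/ha, were sprayed onto soil one day after planting (pre-emerge) or onto 2-3 leaf plants with 0.25% v/v surfactant (post-emerge).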

[13] = test system: common ragweed (Ambrosia artemisizfolia L., AMBEL); test: as above; settings: rating scale 0-100 (0 no damage, 100 complete death), 14 days after application
Outline: as §3

[14] = test system: green foxtail (Setaria viridis, SETVI); test: as above; settings: rating scale 0-100 (0 no damage, 100 complete death), 14 days after application
Outline: as §3

[15] = test system: ivyleaf morningglory (Ipomoea hederacea, IPOHE); test: as above; settings: rating scale 0-100 (0 no damage, 100 complete death), 14 days after application
Outline: as §3

[16] = test system: johnsongrass (Sorghum halepense, SORHA); test: as above; settings: rating scale 0-100 (0 no damage, 100 complete death), 14 days after application
Outline: as §3

[17] = test system: lambsquarters (Chenopodium album, CHEAL); test: as above; settings: rating scale 0-100 (0 no damage, 100 complete death), 14 days after application
Outline: as §3

[18] = test system: large crabgrass (Digitaria sanguinalis, DIGSA); test: as above; settings: rating scale 0-100 (0 no damage, 100 complete death), 14 days after application
Outline: as §3

[19] = test system: redroot pigweed (Amaranthus retroflexus, AMARE); test: as above; settings: rating scale 0-100 (0 no damage, 100 complete death), 14 days after application
Outline: as §3

[20] = test system: sicklepod (Cassia obtusifolia, CASOB); test: as above; settings: rating scale 0-100 (0 no damage, 100 complete death), 14 days after application
Outline: as §3

[21] = test system: velvetleaf (Abutilon theophrasti, ABUTH); test: as above; settings: rating scale 0-100 (0 no damage, 100 complete death), 14 days after application
Outline: as §3

[22] = test system: field corn (Zea mays L., var. Dekalb 535, CORN); test: Post-emerge test, crop safety; settings: rating scale 0-100 (0 no damage, 100 complete death), 14 days after application
Outline: (§4)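 Plants grown in 10 cm pots of sandy loam mix received acetone-dissolved compounds through a moving flat-fan nozzle. Doses ranged from 15 to 1000 g ai/ha. Pre-emerge pots were seeded one day earlier, post-emerge pots 8–21 days earlier. Fourteen days on, each pot was graded 0–100 for damage.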

[23] = test system: upland rice (Oryza sp., var. Tebonnet, RICE); test: Post-emerge test, crop safety; settings: rating scale 0-100 (0 no damage, 100 complete death), 14 days after application
Outline: as §4

CCOC(=O)C(C)(Cl)Cc1c(OC)c(Cl)cc(F)c1-n1c(=O)cc(C(F)(F)F)n(C)c1=O (stereo not shown) [14-34]
Pre-emerge herbicidal activity, phytotoxicity rating AMARE ([1]; 63 g ai/ha): 100 | Pre-emerge herbicidal activity, phytotoxicity rating AMARE ([1]; 250 g ai/ha): 100 | Pre-emerge herbicidal activity, phytotoxicity rating ECHCG ([2]; 63 g ai/ha): 20 | Pre-emerge herbicidal activity, phytotoxicity rating ECHCG ([2]; 250 g ai/ha): 90 | Pre-emerge herbicidal activity, phytotoxicity rating SETVI ([3]; 63 g ai/ha): 30 | Pre-emerge herbicidal activity, phytotoxicity rating SETVI ([3]; 250 g ai/ha): 100 | Pre-emerge herbicidal activity, phytotoxicity rating IPOHE ([4]; 63 g ai/ha): 10 | Pre-emerge herbicidal activity, phytotoxicity rating IPOHE ([4]; 250 g ai/ha): 10 | Pre-emerge herbicidal activity, phytotoxicity rating SORHA ([5]; 63 g ai/ha): 0 | Pre-emerge herbicidal activity, phytotoxicity rating SORHA ([5]; 250 g ai/ha): 30 | Pre-emerge herbicidal activity, phytotoxicity rating CHEAL ([6]; 63 g ai/ha): 95 | Pre-emerge herbicidal activity, phytotoxicity rating CHEAL ([6]; 250 g ai/ha): 100 | Pre-emerge herbicidal activity, phytotoxicity rating DIGSA ([7]; 63 g ai/ha): 90 | Pre-emerge herbicidal activity, phytotoxicity rating DIGSA ([7]; 250 g ai/ha): 100 | Pre-emerge herbicidal activity, phytotoxicity rating CASOB ([8]; 63 g ai/ha): 20 | Pre-emerge herbicidal activity, phytotoxicity rating CASOB ([8]; 250 g ai/ha): 10 | Pre-emerge herbicidal activity, phytotoxicity rating ABUTH ([9]; 63 g ai/ha): 100 | Pre-emerge herbicidal activity, phytotoxicity rating ABUTH ([9]; 250 g ai/ha): 100 | Pre-emerge phytotoxicity rating, crop damage CORN ([10]; 63 g ai/ha): 0 | Pre-emerge phytotoxicity rating, crop damage CORN ([10]; 250 g ai/ha): 25 | Pre-emerge phytotoxicity rating, crop damage RICE ([11]; 63 g ai/ha): 20 | Pre-emerge phytotoxicity rating, crop damage RICE ([11]; 250 g ai/ha): 90 | Post-emerge Herbicidal Activity, phytotoxicity rating ECHCG ([12]; Rate 63 g ai/ha): 100 | Post-emerge Herbicidal Activity, phytotoxicity rating ECHCG ([12]; Rate 250 g ai/ha): 100 | Post-emerge Herbicidal Activity, phytotoxicity rating AMBEL ([13]; Rate 63 g ai/ha): 40 | Post-emerge Herbicidal Activity, phytotoxicity rating AMBEL ([13]; Rate 250 g ai/ha): 100 | Post-emerge Herbicidal Activity, phytotoxicity rating SETVI ([14]; Rate 63 g ai/ha): 100 | Post-emerge Herbicidal Activity, phytotoxicity rating SETVI ([14]; Rate 250 g ai/ha): 100 | Post-emerge Herbicidal Activity, phytotoxicity rating IPOHE ([15]; Rate 63 g ai/ha): 60 | Post-emerge Herbicidal Activity, phytotoxicity rating IPOHE ([15]; Rate 250 g ai/ha): 90 | Post-emerge Herbicidal Activity, phytotoxicity rating SORHA ([16]; Rate 63 g ai/ha): 60 | Post-emerge Herbicidal Activity, phytotoxicity rating SORHA ([16]; Rate 250 g ai/ha): 80 | Post-emerge Herbicidal Activity, phytotoxicity rating CHEAL ([17]; Rate 63 g ai/ha): 100 | Post-emerge Herbicidal Activity, phytotoxicity rating CHEAL ([17]; Rate 250 g ai/ha): 100 | Post-emerge Herbicidal Activity, phytotoxicity rating DIGSA ([18]; Rate 63 g ai/ha): 70 | Post-emerge Herbicidal Activity, phytotoxicity rating DIGSA ([18]; Rate 250 g ai/ha): 99 | Post-emerge Herbicidal Activity, phytotoxicity rating AMARE ([19]; Rate 63 g ai/ha): 100 | Post-emerge Herbicidal Activity, phytotoxicity rating AMARE ([19]; Rate 250 g ai/ha): 100 | Post-emerge Herbicidal Activity, phytotoxicity rating CASOB ([20]; Rate 63 g ai/ha): 40 | Post-emerge Herbicidal Activity, phytotoxicity rating CASOB ([20]; Rate 250 g ai/ha): 100 | Post-emerge Herbicidal Activity, phytotoxicity rating ABUTH ([21]; Rate 63 g ai/ha): 99 | Post-emerge Herbicidal Activity, phytotoxicity rating ABUTH ([21]; Rate 250 g ai/ha): 100 | Post-emerge phytotoxicity rating CORN (crop damage) ([22]; Rate 63 g ai/ha): 80 | Post-emerge phytotoxicity rating CORN (crop damage) ([22]; Rate 250 g ai/ha): 100 | Post-emerge phytotoxicity rating RICE (crop damage) ([23]; Rate 63 g ai/ha): 25 | Post-emerge phytotoxicity rating RICE (crop damage) ([23]; Rate 250 g ai/ha): 70
